Laboratory results published in patent publication EP2787958B1, “CHELIDONIUM MAJUS EXTRACTS AND THEIR USE IN THE TREATMENT OF SKIN DISORDERS AND PROMOTION OF SKIN REGENERATION” (priority 2011, dated 2013).
Like-named read-outs stand apart in the source and are kept apart here.

Key:
interleukin 1β (IL-1β) = test: Inflammatory cytokines in cell supernatant (Mosaic ELISA microarray): IL-1β; type: cell-based, Human; settings: for IL-1β ng/(ml* No. of cells from photo) ± SD: 24 hours
interleukin 6 (IL-6) = test: Inflammatory cytokines in cell supernatant (Mosaic ELISA microarray): IL-6; type: cell-based, Human; settings: for IL-6 ng/(ml* No. of cells from photo) ± SD: 24 hours
HDF cells [1] = test: Evaluation of cell morphology (Sirius Red stained cells, microscopy); type: cell-based, Human
Protocol: Their morphology, colour and shape have been evaluated by using the ImageJ software program.
The results of the effects on cell morphology, produced by the treatment with the test compounds for 24 hours at the concentrations specified, in HDF cells stained for collagen with PSR are shown in Figures 4a-d, 5a-d and 6a-f. These Figures allow evaluating cell morphology through light microscopy observation at magnifications of 100x, 200x and 400x for HDF cells cultured under standard growth conditions, in the presence of 100 µM H2O2 and in the presence of 34 ng/ml TGF-β1.

[2] = Anti-radical activity (decay of the DPPH radical); type: biochemical; settings: for Anti-radical (skin protective): 24 hours
Summary of the method: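 Test substance in ethanol mixed 1:1 with 200 µM DPPH (stock concentrations), in quadruplicate. Absorbance read at 530 nm after 30 min, with vitamin C and ethanol-only controls. IC50 from variable-slope Hill regression of dose-activity curves.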

HDF cells [3] = test: Summary of uses and toxic effects deduced from the cell assays (Table 1); type: cell-based, Human; settings: for Anti-fibrotic (prevention of scar formation, also from acne) / Cytoprotective (antioxidant, anti-inflammatory and anti-ageing; useful also in the treatment of acne) / Cytotoxic / Irritant / Wound-healing: 24 hours
Summary of the method: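 HDF cells exposed to test substances at a given dosage for 24 h; uses and toxicity inferred from free-radical scavenging, mitochondrial dehydrogenase activity, IL-1β/IL-6 production (basal or induced by 100 µM H2O2), proliferation under standard growth conditions, and senescence-like morphology.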

[4] = test system: collagen produced by HDF cells; test: Quantity of collagen produced by the cells (elution of Sirius Red)
[5] = test system: Human dermal fibroblasts (HDF); test: Mitochondrial dehydrogenase activity (WST-1 formazan assay) in HDF cells; settings: for mitochondrial dehydrogenase activity (effect in words): 1 µM; for Revitalizing agent: 24 hours; for activity at 1 µM / activity at 10 µM: Homo sapiens, Fibroblast, read-out: % mitochondrial dehydrogenase activity ± SD
HDF cells [6] = test: Evaluation of cell proliferation (counting of Sirius Red stained cells in photographs); settings: for No. of cells from photo ± SD: 24 hours
[7] = Dose 1 µm (coptisine: 1 pm [sic])

CN1Cc2c(ccc3c2OCO3)[C@@H]2[C@H]1c1cc3c(cc1C[C@@H]2O)OCO3 [chelidonine]
IL-1β production (effect in words) (interleukin 1β (IL-1β); 1 µM, 34 ng/ml TGF-β1): antagonizes the production of IL-1β | IL-1β ng/(ml* No. of cells from photo) ± SD (interleukin 1β (IL-1β); 1 µM, 34 ng/ml TGF-β1): 127±26 ng/(ml* No. of cells from photo) | IL-1β production (effect in words) (interleukin 1β (IL-1β); 1 µM, 100 µM H2O2): antagonizes the production of IL-1β | IL-1β ng/(ml* No. of cells from photo) ± SD (interleukin 1β (IL-1β); 1 µM, 100 µM H2O2): 115±8 ng/(ml* No. of cells from photo) | IL-1β ng/(ml* No. of cells from photo) ± SD (interleukin 1β (IL-1β); 1 µM, Standard conditions): 666±30 ng/(ml* No. of cells from photo) | IL-1β production (effect in words) (interleukin 1β (IL-1β); 1 µM, standard conditions): inhibits the production of IL-1β | IL-1β production (effect in words) (interleukin 1β (IL-1β); 10 µM, 34 ng/ml TGF-β1): stimulates IL-1β production | IL-1β ng/(ml* No. of cells from photo) ± SD (interleukin 1β (IL-1β); 10 µM, 34 ng/ml TGF-β1): 363±27 ng/(ml* No. of cells from photo) | IL-1β production (effect in words) (interleukin 1β (IL-1β); 10 µM, 100 µM H2O2): stimulates IL-1β production | IL-1β ng/(ml* No. of cells from photo) ± SD (interleukin 1β (IL-1β); 10 µM, 100 µM H2O2): 366±35 ng/(ml* No. of cells from photo) | IL-1β ng/(ml* No. of cells from photo) ± SD (interleukin 1β (IL-1β); 10 µM, Standard conditions): 17500±700 ng/(ml* No. of cells from photo) | IL-1β production (effect in words) (interleukin 1β (IL-1β); 10 µM, standard conditions): stimulates IL-1β production | IL-6 production (effect in words) (interleukin 6 (IL-6); 1 µM, 34 ng/ml TGF-β1): antagonizes the production of IL-6 | IL-6 ng/(ml* No. of cells from photo) ± SD (interleukin 6 (IL-6); 1 µM, 34 ng/ml TGF-β1): 620±72 ng/(ml* No. of cells from photo) | IL-6 production (effect in words) (interleukin 6 (IL-6); 1 µM, 100 µM H2O2): antagonizes the production of IL-6 | IL-6 ng/(ml* No. of cells from photo) ± SD (interleukin 6 (IL-6); 1 µM, 100 µM H2O2): 697±87 ng/(ml* No. of cells from photo) | IL-6 ng/(ml* No. of cells from photo) ± SD (interleukin 6 (IL-6); 1 µM, Standard conditions): 2883±553 ng/(ml* No. of cells from photo) | IL-6 production (effect in words) (interleukin 6 (IL-6); 1 µM, standard conditions): inhibits the production of IL-6 | IL-6 production (effect in words) (interleukin 6 (IL-6); 10 µM, 34 ng/ml TGF-β1): stimulates IL-6 production | IL-6 ng/(ml* No. of cells from photo) ± SD (interleukin 6 (IL-6); 10 µM, 34 ng/ml TGF-β1): 1231±76 ng/(ml* No. of cells from photo) | IL-6 production (effect in words) (interleukin 6 (IL-6); 10 µM, 100 µM H2O2): stimulates IL-6 production | IL-6 ng/(ml* No. of cells from photo) ± SD (interleukin 6 (IL-6); 10 µM, 100 µM H2O2): 1990±32 ng/(ml* No. of cells from photo) | IL-6 ng/(ml* No. of cells from photo) ± SD (interleukin 6 (IL-6); 10 µM, Standard conditions): 38100±8300 ng/(ml* No. of cells from photo) | IL-6 production (effect in words) (interleukin 6 (IL-6); 10 µM, standard conditions): stimulates IL-6 production | cell morphology (HDF cells [1]; 1 µM): No changes in cell morphology | cell morphology (HDF cells [1]; 10 µM): Very obvious changes in cell morphology | % DPPH activity ([2]; 1 mM, 30 minutes): 98% | Anti-radical (skin protective) [2, 7]: No | Anti-radical (skin protective) ([2]; Dose 10 µm): No | Anti-fibrotic (prevention of scar formation, also from acne) (HDF cells [3]; [7]): Yes (↓collagen, ↓IL-6, ↓IL-1β) | Cytoprotective (antioxidant, anti-inflammatory and anti-ageing; useful also in the treatment of acne) (HDF cells [3]; [7]): Yes (↓IL-6, ↓IL-1β) | Cytotoxic (HDF cells [3]; [7]): No | Irritant (HDF cells [3]; [7]): No | Wound-healing (HDF cells [3]; [7]): Yes (↓IL-1β) | Anti-fibrotic (prevention of scar formation, also from acne) (HDF cells [3]; Dose 10 µm): No | Cytoprotective (antioxidant, anti-inflammatory and anti-ageing; useful also in the treatment of acne) (HDF cells [3]; Dose 10 µm): No | Cytotoxic (HDF cells [3]; Dose 10 µm): Yes (senescent morph., ↓dehydrogenase) | Irritant (HDF cells [3]; Dose 10 µm): Yes (↑IL-6, ↑IL-1β) | Wound-healing (HDF cells [3]; Dose 10 µm): No | concentrations at which no toxic (cytotoxic and irritant) effects are shown (HDF cells [3]; exposure for 24 hours): less than or equal to 1 µM | collagen production (effect in words) ([4]; 1 µM, 34 ng/ml TGF-β1): tendency to antagonize collagen stimulation induced by TGF-β1 | collagen production (effect in words) ([4]; 1 µM, 100 µM H2O2): tendency to inhibit collagen production | collagen production (effect in words) ([4]; 1 µM, standard conditions): no evident ability to modulate collagen production | collagen production (effect in words) ([4]; 10 µM, 34 ng/ml TGF-β1): stimulates collagen production | collagen production (effect in words) ([4]; 10 µM, 100 µM H2O2): stimulates collagen production | collagen production (effect in words) ([4]; 10 µM, standard conditions): stimulates collagen production | concentrations below which no significant effects on mitochondrial dehydrogenase activity are shown [5]: less than 0.1 µM | mitochondrial dehydrogenase activity (effect in words) ([5]; 18 h): absence of effects | mitochondrial dehydrogenase activity (effect in words) ([5]; increased exposure time): significant inhibition of mitochondrial dehydrogenase activity | Revitalizing agent [5, 7]: No | Revitalizing agent ([5]; Dose 10 µm): No | activity at 1 µM ([5]; 18 h): 105 ± 7.05% | activity at 10 µM ([5]; 18 h): 89.3 ± 6.9% | activity at 1 µM ([5]; 42 h): 64.7 ± 5.88% | activity at 10 µM ([5]; 42 h): 30.3 ± 2.97% | inhibitory power toward the mitochondrial dehydrogenase activity ([5]; skin fibroblast cells and/or keratinocytes): marked inhibitory power | cell proliferation (effect in words) (HDF cells [6]; 1 µM): no evident ability to modulate cell proliferation | No. of cells from photo ± SD (HDF cells [6]; 1 µM, 34 ng/ml TGF-β1): 184±25 | No. of cells from photo ± SD (HDF cells [6]; 1 µM, 100 µM H2O2): 189±37 | No. of cells from photo ± SD (HDF cells [6]; 1 µM, Standard conditions): 202±21 | cell proliferation (effect in words) (HDF cells [6]; 10 µM): marked inhibition of proliferation | No. of cells from photo ± SD (HDF cells [6]; 10 µM, 100 µM H2O2): 101±4 | No. of cells from photo ± SD (HDF cells [6]; 10 µM, Standard conditions): 109±16

C[n+]1cc2c3c(ccc2c2ccc4cc5c(cc4c21)OCO5)OCO3 [sanguinarine]
IL-1β ng/(ml* No. of cells from photo) ± SD (interleukin 1β (IL-1β); 1 µM, 34 ng/ml TGF-β1): 297±13 ng/(ml* No. of cells from photo) | IL-1β ng/(ml* No. of cells from photo) ± SD (interleukin 1β (IL-1β); 1 µM, 100 µM H2O2): 253±9 ng/(ml* No. of cells from photo) | IL-1β ng/(ml* No. of cells from photo) ± SD (interleukin 1β (IL-1β); 1 µM, Standard conditions): 75±1 ng/(ml* No. of cells from photo) | IL-1β ng/(ml* No. of cells from photo) ± SD (interleukin 1β (IL-1β); 10 µM, 34 ng/ml TGF-β1): 16400±5000 ng/(ml* No. of cells from photo) | IL-1β ng/(ml* No. of cells from photo) ± SD (interleukin 1β (IL-1β); 10 µM, 100 µM H2O2): 18400±2800 ng/(ml* No. of cells from photo) | IL-1β ng/(ml* No. of cells from photo) ± SD (interleukin 1β (IL-1β); 10 µM, Standard conditions): 4535±81 ng/(ml* No. of cells from photo) | IL-6 ng/(ml* No. of cells from photo) ± SD (interleukin 6 (IL-6); 1 µM, 34 ng/ml TGF-β1): 2167±279 ng/(ml* No. of cells from photo) | IL-6 ng/(ml* No. of cells from photo) ± SD (interleukin 6 (IL-6); 1 µM, 100 µM H2O2): 2374±264 ng/(ml* No. of cells from photo) | IL-6 ng/(ml* No. of cells from photo) ± SD (interleukin 6 (IL-6); 1 µM, Standard conditions): 470±32 ng/(ml* No. of cells from photo) | IL-6 ng/(ml* No. of cells from photo) ± SD (interleukin 6 (IL-6); 10 µM, 34 ng/ml TGF-β1): 56600±9000 ng/(ml* No. of cells from photo) | IL-6 ng/(ml* No. of cells from photo) ± SD (interleukin 6 (IL-6); 10 µM, 100 µM H2O2): 66300±5000 ng/(ml* No. of cells from photo) | IL-6 ng/(ml* No. of cells from photo) ± SD (interleukin 6 (IL-6); 10 µM, Standard conditions): 17786±27 ng/(ml* No. of cells from photo) | cell morphology (HDF cells [1]; 1 µM): senescent morphology | cell morphology (HDF cells [1]; 10 µM): complete absence of cells | Cytotoxic (HDF cells [3]; [7]): Yes (senescent morph., ↓dehydrogenase) | Irritant (HDF cells [3]; [7]): Yes (↑IL-6, ↑IL-1β) | Cytotoxic (HDF cells [3]; Dose 10 µm): Yes (cell death, ↓dehydrogenase) | Irritant (HDF cells [3]; Dose 10 µm): Yes (↑IL-6, ↑IL-1β) | concentrations at which toxic (cytotoxic and irritant) effects are shown (HDF cells [3]; exposure for 24 hours): greater than or equal to 1 µM | concentrations above which marked inhibition of mitochondrial dehydrogenase activity is caused ([5]; 18 h and 42 h): higher than 1 µM | activity at 1 µM ([5]; 18 h): 83.3 ± 6.83% | activity at 10 µM ([5]; 18 h): -1.57 ± 1.65% | activity at 1 µM ([5]; 42 h): -2.8 ± 3.67% | activity at 10 µM ([5]; 42 h): -16.6 ± 2.55% | No. of cells from photo ± SD (HDF cells [6]; 1 µM, 34 ng/ml TGF-β1): 86±7 | No. of cells from photo ± SD (HDF cells [6]; 1 µM, 100 µM H2O2): 110±18 | No. of cells from photo ± SD (HDF cells [6]; 1 µM, Standard conditions): 30±9 | No. of cells from photo ± SD (HDF cells [6]; 10 µM, 34 ng/ml TGF-β1): 1±0 | No. of cells from photo ± SD (HDF cells [6]; 10 µM, 100 µM H2O2): 1±0 | No. of cells from photo ± SD (HDF cells [6]; 10 µM, Standard conditions): 1±0
